Test results reported in patent publication US20080248511A1, “METHODS TO QUENCH LIGHT FROM OPTICAL REACTIONS” (priority 2007, published 2008).
Read-outs that look alike come from different tables or passages of the source.

Key:
Format in all cases: biochemical
[1] = molecular target: T1, Renilla luciferase (Renilla reniformis, UniProt P27652); assay: biochemical
T1 sequence (P27652 1-311): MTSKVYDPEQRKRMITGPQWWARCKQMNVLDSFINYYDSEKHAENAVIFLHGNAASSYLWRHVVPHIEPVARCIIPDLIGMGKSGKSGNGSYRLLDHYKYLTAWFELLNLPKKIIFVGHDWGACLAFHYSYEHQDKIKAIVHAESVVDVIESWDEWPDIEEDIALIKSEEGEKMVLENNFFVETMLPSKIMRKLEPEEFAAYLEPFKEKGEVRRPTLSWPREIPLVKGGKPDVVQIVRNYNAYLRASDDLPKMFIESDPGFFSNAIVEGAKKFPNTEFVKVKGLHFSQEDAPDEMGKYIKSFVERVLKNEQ

[2] = molecular target: T1, Renilla luciferase; assay: Detergent titration with Tergitol NP-9, digitonin or no lysing agent, Renilla luciferase (Example 4); settings: for remaining activity at 0.0005 % / remaining activity at 0.005 % / remaining activity at 0.05 %: read-out: Relative Renilla Luc Intensity
Description: Renilla luciferase-mediated luminescence was measured from samples containing 9.6 mM phosphate buffer pH 6.8, 2.7 mM KCl, 137 mM NaCl (in PBS), 0.1% gelatin, 75 nM coelentrazine (Promega) and 10.2 ng/ml Renilla luciferase. Reactions contained either no lysing agent, 0.5% Tergitol NP-9 or 20 μg/ml digitonin. The detergents to be tested were titrated to 0.05%, 0.005% or 0.0005% in the reactions prior to the addition of the Renilla luciferase. Renilla luciferase-mediated luminescence was measured as described herein.

[3] = molecular target: T1, Renilla luciferase; assay: Detergent screen with Tergitol NP-9, Renilla luciferase (Example 3)
Description: Unless otherwise specified, materials were obtained from Sigma-Aldrich.
The firefly luciferase and Renilla luciferase enzymes were diluted as follows. Firefly luciferase was diluted to 14 ng/ml in Delbecco's Minimal Essential (DMEM) medium (Gibco/Invitrogen) containing 0.1% Prionex®. Renilla luciferase was diluted to 10 ng/ml in DMEM medium containing 0.1% Prionex®.
The luciferase reactions were initiated by adding 50 μl of the firefly luciferase or Renilla luciferase enzyme solution to 50 μl of reagent solution. The reactions were performed as described above. The retained firefly luciferase and Renilla luciferase luminescence as well as the selectivity values for each quencher were calculated (Table 3). The values listed are based on 0.06% quencher in the reagent solution.

CCCCCCCCCCCC[N+](C)(C)Cc1ccccc1.[Br-] [Benzyldimethyldodecylammonium bromide]
remaining activity at 0.5 % ([1]; 0.5% detergent in Renilla Luciferase Assay Reagent, read-out: Retained Renilla Luciferase Luminescence (%)): 0.08% | Selectivity Value ([1]; retained firefly / retained Renilla, 0.5% detergent): 259.9 | Selective Inhibition (Ff Luc Inh/Ren Luc Inh) ([2]; 0.0005% detergent, Dig): 1.8 | remaining activity at 0.0005 % ([2]; 0.0005% detergent, Dig): 61% | Selective Inhibition (Ff Luc Inh/Ren Luc Inh) ([2]; 0.0005% detergent, Terg): 1.1 | remaining activity at 0.0005 % ([2]; 0.0005% detergent, Terg): 90% | Selective Inhibition (Ff Luc Inh/Ren Luc Inh) ([2]; 0.0005% detergent, Water): 2.2 | remaining activity at 0.0005 % ([2]; 0.0005% detergent, Water): 54% | Selective Inhibition (Ff Luc Inh/Ren Luc Inh) ([2]; 0.0050% detergent, Dig): 29 | remaining activity at 0.005 % ([2]; 0.0050% detergent, Dig): 5% | Selective Inhibition (Ff Luc Inh/Ren Luc Inh) ([2]; 0.0050% detergent, Terg): 1.7 | remaining activity at 0.005 % ([2]; 0.0050% detergent, Terg): 58% | Selective Inhibition (Ff Luc Inh/Ren Luc Inh) ([2]; 0.0050% detergent, Water): 36 | remaining activity at 0.005 % ([2]; 0.0050% detergent, Water): 4% | remaining activity at 0.05 % ([2]; 0.0500% (w:v) detergent, Terg (0.5% Tergitol NP-9)): 2% | Selective Inhibition (Ff Luc Inh/Ren Luc Inh) ([2]; 0.0500% detergent, Dig): 1575 | remaining activity at 0.05 % ([2]; 0.0500% detergent, Dig (20 μg/ml digitonin)): 0.02% | Selective Inhibition (Ff Luc Inh/Ren Luc Inh) ([2]; 0.0500% detergent, Terg): 21 | Selective Inhibition (Ff Luc Inh/Ren Luc Inh) ([2]; 0.0500% detergent, Water): 3627 | remaining activity at 0.05 % ([2]; 0.0500% detergent, Water (no lysing agent)): 0.02% | Retained Renilla Luminescence (%) ([3]; 0.06% quencher in reagent solution, 0.5% Tergitol NP-9): 22% | lowering of selectivity value relative to the screen without Tergitol NP-9 ([3]; Tergitol NP-9 in the reagent solution): about 50 fold | Selectivity Value ([3]; retained firefly / retained Renilla, 0.06% quencher, 0.5% Tergitol NP-9): 5.4
